Test results published in ChEMBL document CHEMBL1201862, “PubChem BioAssay data set” (2004).
The source made the active and inactive calls.

Key:
[1] = biological target: T1, Intestinal-type alkaline phosphatase (Mus musculus, UniProt P24822); assay: PubChem AID 488874; assay type: functional
[2] = biological target: T2, Intestinal-type alkaline phosphatase (Homo sapiens, UniProt P09923); assay: Dose Response confirmation of uHTS hits from a small molecule inhibitors of human intestinal alkaline phosphatase via a luminescent assay. [Related pubchem assays (depositor defined):AID2544, AID2574]; assay type: functional
T2 sequence (P09923 whole entry): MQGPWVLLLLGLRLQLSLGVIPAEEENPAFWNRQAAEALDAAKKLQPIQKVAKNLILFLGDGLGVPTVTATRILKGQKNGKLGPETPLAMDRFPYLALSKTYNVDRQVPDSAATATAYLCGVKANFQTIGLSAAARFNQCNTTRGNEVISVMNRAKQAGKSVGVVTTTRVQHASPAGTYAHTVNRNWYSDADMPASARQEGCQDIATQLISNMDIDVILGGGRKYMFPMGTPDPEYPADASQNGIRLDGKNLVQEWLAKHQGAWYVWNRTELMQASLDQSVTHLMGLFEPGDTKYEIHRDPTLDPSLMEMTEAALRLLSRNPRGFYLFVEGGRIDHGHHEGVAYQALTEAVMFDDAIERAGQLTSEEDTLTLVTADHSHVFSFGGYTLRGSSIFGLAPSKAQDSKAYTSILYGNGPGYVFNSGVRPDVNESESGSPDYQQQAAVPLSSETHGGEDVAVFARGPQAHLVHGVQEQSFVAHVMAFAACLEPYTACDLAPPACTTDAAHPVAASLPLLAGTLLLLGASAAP

[3] = biological target: T2, Intestinal-type alkaline phosphatase; assay: human IAP inhibitors, dose response, biochemical, luminescent, uHTS hits, set 2 (AID 488793); assay type: functional
[4] = biological target: T3, Alkaline phosphatase, tissue-nonspecific isozyme (Homo sapiens, UniProt P05186); assay: inhibition of tissue-nonspecific alkaline phosphatase – biochemical, dose response (AID 488882); assay type: functional
T3 sequence (P05186 whole entry): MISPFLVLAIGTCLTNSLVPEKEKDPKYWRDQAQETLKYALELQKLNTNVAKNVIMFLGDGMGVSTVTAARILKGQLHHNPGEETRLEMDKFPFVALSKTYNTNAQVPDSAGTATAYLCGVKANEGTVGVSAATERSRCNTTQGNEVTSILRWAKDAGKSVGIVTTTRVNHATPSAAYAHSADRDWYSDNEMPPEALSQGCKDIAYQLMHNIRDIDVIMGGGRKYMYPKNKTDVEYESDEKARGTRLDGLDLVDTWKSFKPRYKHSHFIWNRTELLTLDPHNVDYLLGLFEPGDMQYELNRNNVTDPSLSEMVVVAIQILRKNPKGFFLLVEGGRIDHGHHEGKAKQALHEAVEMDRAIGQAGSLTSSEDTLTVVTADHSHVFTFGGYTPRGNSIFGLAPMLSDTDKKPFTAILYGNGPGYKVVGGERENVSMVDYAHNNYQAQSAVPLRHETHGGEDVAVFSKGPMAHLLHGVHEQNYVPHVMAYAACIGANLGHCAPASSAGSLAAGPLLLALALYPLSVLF

SUMO E1/E2 = SUMO E1/E2 (Homo sapiens, UniProt P63279+Q9UBE0+Q9UBT2); assay: SAR analysis of SUMOylation using HTRF in an in-Vitro dose response assay. [Related pubchem assays (depositor defined):AID2006, AID2011, AID2018, AID2069, AID2658]; assay type: functional
SUMO E1/E2, sequence (Q9UBE0 whole entry): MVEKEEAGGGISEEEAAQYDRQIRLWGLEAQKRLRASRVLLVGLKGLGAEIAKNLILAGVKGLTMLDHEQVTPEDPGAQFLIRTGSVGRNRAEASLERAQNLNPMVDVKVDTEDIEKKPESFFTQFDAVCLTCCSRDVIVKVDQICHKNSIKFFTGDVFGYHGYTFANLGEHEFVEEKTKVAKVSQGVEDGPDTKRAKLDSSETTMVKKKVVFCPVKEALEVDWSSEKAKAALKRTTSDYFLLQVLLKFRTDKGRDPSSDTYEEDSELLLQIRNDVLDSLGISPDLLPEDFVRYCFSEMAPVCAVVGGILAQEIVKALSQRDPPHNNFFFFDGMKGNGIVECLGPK
SUMO E1/E2, sequence (Q9UBT2 whole entry): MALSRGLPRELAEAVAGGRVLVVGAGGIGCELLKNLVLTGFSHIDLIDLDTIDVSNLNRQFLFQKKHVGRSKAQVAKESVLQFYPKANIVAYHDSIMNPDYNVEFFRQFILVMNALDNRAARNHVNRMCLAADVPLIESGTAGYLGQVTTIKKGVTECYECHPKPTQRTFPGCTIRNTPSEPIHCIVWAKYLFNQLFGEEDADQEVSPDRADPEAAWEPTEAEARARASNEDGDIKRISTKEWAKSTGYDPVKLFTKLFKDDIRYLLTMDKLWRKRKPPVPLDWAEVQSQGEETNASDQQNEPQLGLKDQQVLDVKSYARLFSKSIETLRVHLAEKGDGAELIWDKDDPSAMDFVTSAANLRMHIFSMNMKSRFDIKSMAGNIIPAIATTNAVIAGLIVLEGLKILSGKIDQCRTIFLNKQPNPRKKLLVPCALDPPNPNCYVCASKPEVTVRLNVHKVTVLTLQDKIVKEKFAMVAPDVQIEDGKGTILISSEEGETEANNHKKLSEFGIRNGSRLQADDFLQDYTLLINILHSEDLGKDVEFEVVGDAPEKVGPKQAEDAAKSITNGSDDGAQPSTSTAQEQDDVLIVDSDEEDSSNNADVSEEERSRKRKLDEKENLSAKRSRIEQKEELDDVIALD
SUMO E1/E2, sequence (P63279 whole entry): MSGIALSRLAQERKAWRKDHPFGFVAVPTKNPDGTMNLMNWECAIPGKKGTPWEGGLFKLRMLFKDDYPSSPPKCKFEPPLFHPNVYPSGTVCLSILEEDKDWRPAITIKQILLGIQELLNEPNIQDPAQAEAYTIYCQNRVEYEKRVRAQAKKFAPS

SUMO-activating enzyme [5] = biological target: T4, SUMO-activating enzyme (Homo sapiens, UniProt Q9UBT2); assay: inhibitors of in vitro SUMOylation cascade, primary screen, biochemical, HTRF, uHTS (AID 2006); assay type: protein-complex assay
T4 sequence (Q9UBE0 whole entry): as the sequence (Q9UBE0 whole entry) above
T4 sequence (Q9UBT2 whole entry): as the sequence (Q9UBT2 whole entry) above

SUMO-activating enzyme [6] = biological target: T4, SUMO-activating enzyme; assay: SUMOylation inhibitor hit validation, confirmation, SUMOylation inhibitor project, biochemical, AlphaScreen (AID 2018); assay type: functional
[7] = biological target: T2, Intestinal-type alkaline phosphatase; assay: human IAP activators, dose response, biochemical, luminescent, uHTS hits, set 2 (AID 488817); assay type: functional;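 also: potency of activators that raise enzyme activity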
[8] = biological target: T2, Intestinal-type alkaline phosphatase; assay: human intestinal alkaline phosphatase activators, dose response, biochemical, luminescence, uHTS hits (AID 463120); assay type: functional
[9] = biological target: T1, Intestinal-type alkaline phosphatase; assay: PubChem AID 488875; assay type: functional
[10] = biological target: T3, Alkaline phosphatase, tissue-nonspecific isozyme; assay: TNAP enzyme activators, dose response, selectivity assay for human IAP activator project, biochemical, TNAP isozyme, human IAP uHTS hits (AID 488886); assay type: functional;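 also: potency of compounds raising TNAP activity as a selectivity check on IAP activators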
[11] = inhibitors of Trypanosoma cruzi host-cell infection, confirmation, beta-gal luminescence, NIH3T3 host cells (AID 2630); assay type: functional, cell-based; details: Mus musculus

T1 sequence (P24822 whole entry): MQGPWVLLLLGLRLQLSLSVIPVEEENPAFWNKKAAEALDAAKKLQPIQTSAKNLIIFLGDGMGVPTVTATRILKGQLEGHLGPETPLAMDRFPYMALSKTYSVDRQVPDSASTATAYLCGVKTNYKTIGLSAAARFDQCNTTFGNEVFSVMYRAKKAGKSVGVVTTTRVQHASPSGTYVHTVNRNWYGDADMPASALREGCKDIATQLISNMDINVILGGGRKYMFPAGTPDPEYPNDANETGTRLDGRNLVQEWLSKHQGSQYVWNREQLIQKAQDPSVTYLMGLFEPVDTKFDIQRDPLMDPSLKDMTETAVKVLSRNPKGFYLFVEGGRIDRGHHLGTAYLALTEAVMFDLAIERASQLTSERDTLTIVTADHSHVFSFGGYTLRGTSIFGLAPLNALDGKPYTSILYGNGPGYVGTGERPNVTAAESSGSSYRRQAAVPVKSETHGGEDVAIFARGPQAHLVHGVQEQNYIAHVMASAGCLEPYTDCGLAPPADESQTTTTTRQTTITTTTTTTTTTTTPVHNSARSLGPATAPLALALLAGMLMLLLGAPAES

SMILES: c1ccc(CSCCc2ccncc2)cc1
- IC50 [1]: > 100 µM (inactive)
- IC50 [2]: 23.1 µM (inactive)
- IC50 [3]: 23.4 µM (active)
- IC50 [4]: 47.9 µM (active)

SMILES: COc1cc(C2c3c(oc4ccccc4c3=O)C(=O)N2c2nccs2)ccc1O (configuration not stated)
- IC50 (SUMO E1/E2): 81.5 µM (active)
- IC50 (SUMO-activating enzyme [5]): 36 µM (active)
- IC50 (SUMO-activating enzyme [6]): 12.7 µM (active)

SMILES: COc1cc(OC)cc(C(=O)NNC(=O)c2nn(C)c(=O)c3ccccc23)c1
- EC50 [7]: 12.4 µM (active)
- EC50 [8]: 11.8 µM (active)
- EC50 [9]: > 100 µM (inactive)
- EC50 [10]: 11.8 µM (active)

SMILES: CCn1cc(CN2CCCC(C(=O)c3cccc(C(F)(F)F)c3)C2)cn1 (configuration not stated)
- EC50 [11]: 0.25 µM (active)
